Assay results published in article PMC10686834, “Targeting myeloid chemotaxis to reverse prostate cancer therapy resistance” (Nature, 2023).

Tested on: patients with ARSI-resistant mCRPC
Test: Phase 1 trial of AZD5069 plus enzalutamide: safety and tolerability (DLTs, treatment-emergent adverse events, NCI-CTCAE v.4.0)
Type: in vivo
From the text: The primary trial objective was to evaluate the safety and tolerability of the combination. Key secondary objectives were to evaluate pharmacokinetic–pharmacodynamic parameters and antitumour activity.
Eligible patients were consenting patients aged ≥18 years, who had mCRPC with histologically confirmed prostate adenocarcinoma histology, documented cancer progression at the time of trial entry by Response Evaluation Criteria in Solid Tumors (v.1.1) and/or Prostate Cancer Working Group 2 criteria, and PSA of ≥10 ng ml^−1 at screening.
The dose-escalation phase used a rule-based 3 + 3 design, with an initial three patients enrolled per dose level. If none of the first three patients experienced a DLT, dose escalation proceeded to the next dose level. […] If fewer than two of six patients at any dose level experienced a DLT, dose escalation continued to the next level. If at least two out of up to six patients experienced a DLT, dose escalation stopped and this dose level was defined as the maximum administered dose. Once this maximum administered dose was defined, the maximum tolerated dose (MTD) was confirmed at the dose level below the maximum administered dose. At least six evaluable patients were required to establish the MTD at a specific dose level. […] Intra-patient dose escalation was not permitted. Start of dosing between the first and second patient enrolled to each dose level was staggered by 1 week. Once the MTD was determined in the phase 1 study, the recommended phase 2 dose was determined on the basis of available data, including but not limited to safety and response.
DLTs were defined as described in the study protocol. […] Prophylaxis with growth factor support or antipyretics were not permitted. Investigators determined whether an adverse event was related to the study drugs. If a patient experienced clinically significant and/or unacceptable toxicity, including a DLT, not attributable to the disease or disease-related processes, dosing was interrupted or the dose was reduced and supportive therapy was administered as required.

Question: What does the source list for C[C@@H](Oc1cc(NS(=O)(=O)N2CCC2)nc(SCc2cccc(F)c2F)n1)[C@@H](O)CO [AZD5069]?
Answer: TEAE Arthralgia, G≥3 (AZD5069 160 mg BD (n=6)): 0 (0) n (%); TEAE Aspartate aminotransferase increased, All G (AZD5069 160 mg BD (n=6)): 0 (0) n (%); TEAE Aspartate aminotransferase increased, G≥3 (AZD5069 160 mg BD (n=6)): 0 (0) n (%); TEAE Constipation, All G (AZD5069 160 mg BD (n=6)): 0 (0) n (%); TEAE Constipation, G≥3 (AZD5069 160 mg BD (n=6)): 0 (0) n (%); TEAE Death, All G (AZD5069 160 mg BD (n=6)): 0 (0) n (%); TEAE Death, G≥3 (AZD5069 160 mg BD (n=6)): 0 (0) n (%); TEAE Decreased appetite, All G (AZD5069 160 mg BD (n=6)): 0 (0) n (%); TEAE Decreased appetite, G≥3 (AZD5069 160 mg BD (n=6)): 0 (0) n (%); TEAE Diarrhoea, All G (AZD5069 160 mg BD (n=6)): 0 (0) n (%); TEAE Diarrhoea, G≥3 (AZD5069 160 mg BD (n=6)): 0 (0) n (%); TEAE Dry skin, All G (AZD5069 160 mg BD (n=6)): 0 (0) n (%); TEAE Dry skin, G≥3 (AZD5069 160 mg BD (n=6)): 0 (0) n (%); TEAE Fatigue, All G (AZD5069 160 mg BD (n=6)): 2 (33) n (%); TEAE Fatigue, G≥3 (AZD5069 160 mg BD (n=6)): 0 (0) n (%); TEAE Headache, All G (AZD5069 160 mg BD (n=6)): 0 (0) n (%); TEAE Headache, G≥3 (AZD5069 160 mg BD (n=6)): 0 (0) n (%); TEAE Hypophosphataemia, All G (AZD5069 160 mg BD (n=6)): 0 (0) n (%); TEAE Hypophosphataemia, G≥3 (AZD5069 160 mg BD (n=6)): 0 (0) n (%); TEAE Nausea, All G (AZD5069 160 mg BD (n=6)): 2 (33) n (%); TEAE Nausea, G≥3 (AZD5069 160 mg BD (n=6)): 0 (0) n (%); TEAE Neutrophil decreased, All G (AZD5069 160 mg BD (n=6)): 5 (83) n (%); TEAE Neutrophil decreased, G≥3 (AZD5069 160 mg BD (n=6)): 4 (67) n (%); TEAE Oedema genital, All G (AZD5069 160 mg BD (n=6)): 1 (17) n (%); TEAE Oedema genital, G≥3 (AZD5069 160 mg BD (n=6)): 0 (0) n (%); TEAE Platelet decreased, All G (AZD5069 160 mg BD (n=6)): 1 (17) n (%); TEAE Platelet decreased, G≥3 (AZD5069 160 mg BD (n=6)): 0 (0) n (%); TEAE Pruritus, All G (AZD5069 160 mg BD (n=6)): 0 (0) n (%); TEAE Pruritus, G≥3 (AZD5069 160 mg BD (n=6)): 0 (0) n (%); TEAE Skin infection, All G (AZD5069 160 mg BD (n=6)): 0 (0) n (%); TEAE Skin infection, G≥3 (AZD5069 160 mg BD (n=6)): 0 (0) n (%); TEAE Vomiting, All G (AZD5069 160 mg BD (n=6)): 0 (0) n (%); TEAE Vomiting, G≥3 (AZD5069 160 mg BD (n=6)): 0 (0) n (%); TEAE White blood cell decreased, All G (AZD5069 160 mg BD (n=6)): 2 (33) n (%); TEAE White blood cell decreased, G≥3 (AZD5069 160 mg BD (n=6)): 0 (0) n (%); TEAE Anemia, All G (AZD5069 320 mg BD (n=7)): 0 (0) n (%); TEAE Anemia, G≥3 (AZD5069 320 mg BD (n=7)): 0 (0) n (%); TEAE Aphasia, All G (AZD5069 320 mg BD (n=7)): 1 (14) n (%); TEAE Aphasia, G≥3 (AZD5069 320 mg BD (n=7)): 0 (0) n (%); TEAE Arthralgia, All G (AZD5069 320 mg BD (n=7)): 1 (14) n (%); TEAE Arthralgia, G≥3 (AZD5069 320 mg BD (n=7)): 0 (0) n (%); TEAE Aspartate aminotransferase increased, All G (AZD5069 320 mg BD (n=7)): 1 (14) n (%); TEAE Aspartate aminotransferase increased, G≥3 (AZD5069 320 mg BD (n=7)): 0 (0) n (%); TEAE Constipation, All G (AZD5069 320 mg BD (n=7)): 1 (14) n (%); TEAE Constipation, G≥3 (AZD5069 320 mg BD (n=7)): 0 (0) n (%); TEAE Death, All G (AZD5069 320 mg BD (n=7)): 1 (14) n (%); TEAE Death, G≥3 (AZD5069 320 mg BD (n=7)): 1 (14) n (%); TEAE Decreased appetite, All G (AZD5069 320 mg BD (n=7)): 1 (14) n (%); TEAE Decreased appetite, G≥3 (AZD5069 320 mg BD (n=7)): 0 (0) n (%); TEAE Diarrhoea, All G (AZD5069 320 mg BD (n=7)): 1 (14) n (%); TEAE Diarrhoea, G≥3 (AZD5069 320 mg BD (n=7)): 1 (14) n (%); TEAE Dry skin, All G (AZD5069 320 mg BD (n=7)): 1 (14) n (%); TEAE Dry skin, G≥3 (AZD5069 320 mg BD (n=7)): 0 (0) n (%); TEAE Fatigue, All G (AZD5069 320 mg BD (n=7)): 3 (43) n (%); TEAE Fatigue, G≥3 (AZD5069 320 mg BD (n=7)): 0 (0) n (%); TEAE Headache, All G (AZD5069 320 mg BD (n=7)): 3 (43) n (%); TEAE Headache, G≥3 (AZD5069 320 mg BD (n=7)): 0 (0) n (%); TEAE Hypophosphataemia, All G (AZD5069 320 mg BD (n=7)): 0 (0) n (%); TEAE Hypophosphataemia, G≥3 (AZD5069 320 mg BD (n=7)): 0 (0) n (%); TEAE Nausea, All G (AZD5069 320 mg BD (n=7)): 1 (14) n (%); TEAE Nausea, G≥3 (AZD5069 320 mg BD (n=7)): 0 (0) n (%); TEAE Neutrophil decreased, All G (AZD5069 320 mg BD (n=7)): 6 (86) n (%); TEAE Neutrophil decreased, G≥3 (AZD5069 320 mg BD (n=7)): 4 (57) n (%); TEAE Oedema genital, All G (AZD5069 320 mg BD (n=7)): 0 (0) n (%); TEAE Oedema genital, G≥3 (AZD5069 320 mg BD (n=7)): 0 (0) n (%); TEAE Platelet decreased, All G (AZD5069 320 mg BD (n=7)): 0 (0) n (%); TEAE Platelet decreased, G≥3 (AZD5069 320 mg BD (n=7)): 0 (0) n (%); TEAE Pruritus, All G (AZD5069 320 mg BD (n=7)): 0 (0) n (%); TEAE Pruritus, G≥3 (AZD5069 320 mg BD (n=7)): 0 (0) n (%); TEAE Skin infection, All G (AZD5069 320 mg BD (n=7)): 0 (0) n (%); TEAE Skin infection, G≥3 (AZD5069 320 mg BD (n=7)): 0 (0) n (%); TEAE Vomiting, All G (AZD5069 320 mg BD (n=7)): 0 (0) n (%); TEAE Vomiting, G≥3 (AZD5069 320 mg BD (n=7)): 0 (0) n (%); TEAE White blood cell decreased, All G (AZD5069 320 mg BD (n=7)): 1 (14) n (%); TEAE White blood cell decreased, G≥3 (AZD5069 320 mg BD (n=7)): 0 (0) n (%); TEAE Anemia, All G (All patients (n=23)): 4 (17) n (%); TEAE Anemia, G≥3 (All patients (n=23)): 1 (4) n (%); TEAE Aphasia, All G (All patients (n=23)): 1 (4) n (%); TEAE Aphasia, G≥3 (All patients (n=23)): 0 (0) n (%); TEAE Arthralgia, All G (All patients (n=23)): 1 (4) n (%); TEAE Arthralgia, G≥3 (All patients (n=23)): 0 (0) n (%); TEAE Aspartate aminotransferase increased, All G (All patients (n=23)): 1 (4) n (%); TEAE Aspartate aminotransferase increased, G≥3 (All patients (n=23)): 0 (0) n (%); TEAE Constipation, All G (All patients (n=23)): 2 (9) n (%); TEAE Constipation, G≥3 (All patients (n=23)): 0 (0) n (%); TEAE Death, All G (All patients (n=23)): 1 (4) n (%); TEAE Death, G≥3 (All patients (n=23)): 1 (4) n (%); TEAE Decreased appetite, All G (All patients (n=23)): 1 (4) n (%); TEAE Decreased appetite, G≥3 (All patients (n=23)): 0 (0) n (%); TEAE Diarrhoea, All G (All patients (n=23)): 1 (4) n (%); TEAE Diarrhoea, G≥3 (All patients (n=23)): 1 (4) n (%); TEAE Dry skin, All G (All patients (n=23)): 1 (4) n (%); TEAE Dry skin, G≥3 (All patients (n=23)): 0 (0) n (%); TEAE Fatigue, All G (All patients (n=23)): 7 (30) n (%); TEAE Fatigue, G≥3 (All patients (n=23)): 0 (0) n (%); TEAE Headache, All G (All patients (n=23)): 3 (13) n (%); TEAE Headache, G≥3 (All patients (n=23)): 0 (0) n (%); TEAE Hypophosphataemia, All G (All patients (n=23)): 1 (4) n (%); TEAE Hypophosphataemia, G≥3 (All patients (n=23)): 0 (0) n (%); TEAE Nausea, All G (All patients (n=23)): 5 (22) n (%); TEAE Nausea, G≥3 (All patients (n=23)): 0 (0) n (%); TEAE Neutrophil decreased, All G (All patients (n=23)): 19 (83) n (%); TEAE Neutrophil decreased, G≥3 (All patients (n=23)): 11 (48) n (%); TEAE Oedema genital, All G (All patients (n=23)): 1 (4) n (%); TEAE Oedema genital, G≥3 (All patients (n=23)): 0 (0) n (%); TEAE Platelet decreased, All G (All patients (n=23)): 2 (9) n (%); TEAE Platelet decreased, G≥3 (All patients (n=23)): 0 (0) n (%); TEAE Pruritus, All G (All patients (n=23)): 1 (4) n (%); TEAE Pruritus, G≥3 (All patients (n=23)): 0 (0) n (%); TEAE Skin infection, All G (All patients (n=23)): 1 (4) n (%); TEAE Skin infection, G≥3 (All patients (n=23)): 0 (0) n (%); TEAE Vomiting, All G (All patients (n=23)): 1 (4) n (%); TEAE Vomiting, G≥3 (All patients (n=23)): 0 (0) n (%); TEAE White blood cell decreased, All G (All patients (n=23)): 3 (13) n (%); TEAE White blood cell decreased, G≥3 (All patients (n=23)): 0 (0) n (%); permanent treatment discontinuation due to treatment-emergent adverse events (all dose levels): no permanent treatment discontinuation; treatment-emergent anaemia, all grades (all dose levels, 23 patients): 17%; treatment-emergent anaemia, grade ≥ 3 (all dose levels, 23 patients): 4%; treatment-emergent constipation, all grades (all dose levels, 23 patients): 9%; treatment-emergent fatigue, all grades (all dose levels, 23 patients): 30%; treatment-emergent headache, all grades (all dose levels, 23 patients): 13%; treatment-emergent leukopaenia, all grades (all dose levels, 23 patients): 13%; treatment-emergent nausea, all grades (all dose levels, 23 patients): 22%; treatment-emergent neutropaenia, all grades (all dose levels, 23 patients): 83%; treatment-emergent neutropaenia, grade ≥ 3 (all dose levels, 23 patients): 48%; treatment-emergent thrombocytopaenia, all grades (all dose levels, 23 patients): 9%
